# “And” between values parts separate entries of the source, which are not always exact repeats. Equal entries are not always repeated.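 Values below derive from 48-hour exposures of cells grown in 96-well plates, with endpoints linearly interpolated between the two concentrations bracketing the appropriate inhibition level. GI50 marks 50% less growth. TGI: concentration producing complete growth inhibition.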 Where a SMILES comes first, the peptide text is derived from it. [ ]: non-standard residue; d: D form. The star is where a group is joined. ξ: configuration not given here. NMeY = CN[C@@H](Cc1ccc(O)cc1)C(=O)O; Cbz = O=C(OCc1ccccc1)*; ξA = CC(N)C(=O)O
# Legend:
# Assay in all cases: growth of human tumour cells (NCI), 48 h
# EKVX NSCLC = test system: EKVX NSCLC
# HS 578T breast = test system: HS 578T breast
# MALME-3M melanoma = test system: MALME-3M melanoma
# MOLT-4 leukemia = test system: MOLT-4 leukemia
# NCI-H226 lung = test system: NCI-H226 lung
# OVCAR-8 ovarian = test system: OVCAR-8 ovarian
# RPMI-8226 leukemia = test system: RPMI-8226 leukemia
# SF-295 CNS = test system: SF-295 CNS
# SK-MEL-2 melanoma = test system: SK-MEL-2 melanoma
# UO-31 renal = test system: UO-31 renal
SMILES,TGI (EKVX NSCLC),TGI (HS 578T breast),TGI (MALME-3M melanoma),TGI (MOLT-4 leukemia),TGI (NCI-H226 lung),TGI (OVCAR-8 ovarian),TGI (RPMI-8226 leukemia),TGI (SF-295 CNS),TGI (SK-MEL-2 melanoma),TGI (UO-31 renal),GI50 (HS 578T breast),GI50 (EKVX NSCLC),GI50 (MALME-3M melanoma),GI50 (MOLT-4 leukemia),GI50 (OVCAR-8 ovarian),GI50 (RPMI-8226 leukemia),GI50 (SF-295 CNS),GI50 (SK-MEL-2 melanoma),GI50 (UO-31 renal),GI50 (NCI-H226 lung)
COc1ccc(C[C@@H](C(=O)NCC(N)=O)N(C)C(=O)[C@@H]2CCCN2C(=O)[C@H](CC(C)C)NC(=O)C(C)NC(=O)OCc2ccccc2)cc1 (some centres undefined) (Cbz-[ξA]LP[NMeY](Me)G-NH2),> 100 µM,> 100 µM,> 100 µM,> 100 µM,> 100 µM,> 100 µM,> 100 µM,> 100 µM,> 100 µM,> 100 µM,–,–,–,–,–,–,–,–,–,–
CN(C)CCCn1c2ccccc2c2cnccc21,> 100 µM,> 100 µM,83.3 µM,83.9 µM,59.7 µM,> 100 µM,71.6 µM,> 100 µM,> 100 µM,47.9 µM,–,–,–,–,–,–,–,–,–,–
COc1cn2c(cc1=O)COc1ccc(-c3ccccc3)cc1-2,> 100 µM,> 100 µM,> 84.1 µM,> 100 µM,> 100 µM,> 100 µM,> 100 µM,> 100 µM,> 100 µM,> 100 µM,43.6 µM,–,–,–,–,–,–,–,–,–
Oc1ccc2ccccc2c1-c1nnc(CCCCCCCCc2nnc(-c3c(O)ccc4ccccc34)o2)o1,25 µM and > 100 µM,25 µM and > 100 µM,8.33 µM and 58.2 µM,–,29.6 µM,–,25 µM and > 100 µM,25 µM and > 93.6 µM,25 µM and > 100 µM,19.2 µM and 15.4 µM,19.6 µM,6.7 µM,8.98 µM,0.0812 µM,0.317 µM,3.56 µM,2.83 µM,4.88 µM,0.93 µM,–
CC1=NN(c2ccc(C)cc2)C2(C1)SCC(=O)N2c1nc2ccccc2s1 (centres undefined),99.1 µM,> 100 µM,> 100 µM,46.1 µM,47 µM,> 100 µM,50.1 µM,> 100 µM,61.1 µM,> 100 µM,–,–,–,–,–,–,–,–,–,–
CCCCn1cc(C(=O)O)c(=O)c2c3sccc3ccc21,> 100 µM,> 100 µM,> 100 µM,> 100 µM,> 100 µM,> 100 µM,> 100 µM,> 100 µM,> 100 µM,50 µM,–,–,–,–,–,–,–,–,–,–
CSc1c(C(C)=O)c(O)n(-c2ccc(Cl)cc2)c(=O)c1C#N,> 100 µM,> 100 µM,> 100 µM,55.3 µM,> 100 µM,> 100 µM,99.2 µM,–,> 100 µM,84.6 µM,–,–,–,–,–,–,–,–,–,–
CN(C)c1ccc(/C=C(\NC(=O)c2ccccc2)C(=O)Nc2ccccc2C(=O)NN2C(=O)CSC2c2ccc(N(C)C)cc2)cc1 (centres undefined),> 100 µM,> 100 µM,> 100 µM,> 100 µM,> 100 µM,> 100 µM,> 100 µM,> 100 µM,> 100 µM,> 100 µM,–,–,–,–,–,–,–,–,–,–
CCCCC[C@H](O)[C@H](C)C=C1SCCCS1,> 100 µM,> 100 µM,> 100 µM,> 100 µM,> 100 µM,> 100 µM,> 100 µM,> 100 µM,> 100 µM,> 100 µM,–,–,–,–,–,–,–,–,–,–
CC(=O)N(C(C)=O)n1c(Cc2ccc(Cl)cc2)nn(C(C)=O)c1=O,> 100 µM,> 100 µM,> 100 µM,> 100 µM,> 100 µM,> 100 µM,> 100 µM,> 100 µM,> 100 µM,> 100 µM,–,–,–,–,–,–,–,–,–,–
Cc1ccc(S(=O)(=O)Nn2c(-c3ccccc3)c(C#N)c(-c3ccc([N+](=O)[O-])cc3)c(C#N)c2=O)cc1,> 100 µM,> 100 µM,> 100 µM,> 100 µM,> 100 µM,> 100 µM,64.3 µM,> 100 µM,> 100 µM,–,–,–,–,–,–,–,–,–,–,–
CC1=NNC(N)=N/C1=C/C(Sc1ccc(Cl)cc1)c1cccs1 (centres undefined),30.3 µM,> 100 µM,27.1 µM,> 100 µM,32.6 µM,57.2 µM,64.3 µM,31.3 µM,27.4 µM,17.7 µM,–,–,–,–,–,–,–,–,–,–
Cc1[nH]c(=O)nc(N/N=C/c2ccc(Cl)c(Cl)c2)c1C(=O)Nc1ccc(Cl)c(Cl)c1,> 100 µM,27.2 µM,> 44.5 µM,> 100 µM,> 52.2 µM,14.8 µM,> 100 µM,> 30.7 µM,49.9 µM,> 56.2 µM,–,–,–,–,–,–,–,–,–,–
COc1cc(C(=O)Nc2nnc(S(N)(=O)=O)s2)cc(OC)c1OC,> 100 µM,> 100 µM,> 100 µM,> 100 µM,> 100 µM,> 100 µM,> 100 µM,> 100 µM,> 100 µM,> 100 µM,–,–,–,–,–,–,–,–,–,–
O=C(C[C@@H]1NCCC[C@H]1O)Cn1cnc2cc(Br)c(Cl)cc2c1=O,0.803 µM,1.36 µM,0.144 µM,> 100 µM,0.0473 µM,0.125 µM,0.128 µM,0.337 µM,0.05 µM,0.422 µM,–,–,–,–,–,–,–,–,–,–
O=C1CCSSCCC(=O)Nc2ccccc2N1,> 100 µM,> 100 µM,> 100 µM,> 100 µM,> 100 µM,> 100 µM,> 100 µM,> 100 µM,> 100 µM,> 100 µM,–,–,–,–,–,–,–,–,–,–
CCOC(=O)c1c2c(n(C)c1-c1ccccc1)C(=O)C(C)=CC2=O,20.5 µM,56.7 µM,22.8 µM,9.96 µM,24.9 µM,15.4 µM,4.81 µM,36.8 µM,31.1 µM,26.6 µM,–,–,–,–,–,–,–,–,–,–

SMILES,TGI (EKVX NSCLC),TGI (HS 578T breast),TGI (MALME-3M melanoma),TGI (MOLT-4 leukemia),TGI (NCI-H226 lung),TGI (OVCAR-8 ovarian),TGI (RPMI-8226 leukemia),TGI (SF-295 CNS),TGI (SK-MEL-2 melanoma),TGI (UO-31 renal),GI50 (HS 578T breast),GI50 (EKVX NSCLC),GI50 (MALME-3M melanoma),GI50 (MOLT-4 leukemia),GI50 (OVCAR-8 ovarian),GI50 (RPMI-8226 leukemia),GI50 (SF-295 CNS),GI50 (SK-MEL-2 melanoma),GI50 (UO-31 renal),GI50 (NCI-H226 lung)
CC(=O)N[C@@H](Cc1ccc(O)cn1)C(=O)NCc1ccc2c(c1)OCO2,> 100 µM,> 100 µM,> 100 µM,> 100 µM,> 100 µM,> 100 µM,> 100 µM,> 100 µM,> 100 µM,> 100 µM,–,–,–,–,–,–,–,–,–,–
O=C(Nc1cccc2nsnc12)c1cc2c(cc1Cl)Sc1nccn1S2(=O)=O,11.1 µM,> 100 µM,> 100 µM,> 30.7 µM,55.4 µM,8.94 µM,4.96 µM,28.2 µM,26.4 µM,4.41 µM,–,–,–,–,–,–,–,–,–,–
COc1ccc(/C=N/Nc2[nH]c(=S)nc3[nH]ncc23)cc1,> 100 µM,> 100 µM,99.4 µM,> 100 µM,> 100 µM,> 100 µM,> 100 µM,> 100 µM,> 100 µM,> 100 µM,–,–,–,–,–,–,–,–,–,–
Cc1cs/c(=N\C(P(=O)(O)O)P(=O)(O)O)n1C,> 100 µM,47.8 µM,> 100 µM,> 100 µM,> 100 µM,> 100 µM,> 100 µM,> 100 µM,–,> 100 µM,–,–,–,–,–,–,–,–,–,–
CCCCCCCCCCCCOC1C(COCCN2CCCC2)OC2OC(C)(C)OC21 (centres undefined),10.2 µM,3.51 µM,3.35 µM,10.4 µM,7.62 µM,3.03 µM,12.1 µM,3.28 µM,3.09 µM,2.96 µM,–,–,–,–,–,–,–,–,–,–
O=C1c2ccccc2S(=O)(=O)c2ccccc21,> 100 µM,> 100 µM,> 100 µM,> 100 µM,> 100 µM,> 100 µM,> 100 µM,> 100 µM,> 100 µM,> 100 µM,–,–,–,–,–,–,–,–,–,–
CCOC(=O)C1C/C(C)=C(/C)SCCCS1 (centres undefined),> 100 µM,> 100 µM,> 100 µM,> 100 µM,> 100 µM,> 100 µM,> 100 µM,> 100 µM,> 100 µM,> 100 µM,–,–,–,–,–,–,–,–,–,–
COc1ccccc1C1C(C#N)=C(N)OC2=C1C(=O)CCC2 (centres undefined),> 100 µM,> 100 µM,> 100 µM,> 100 µM,> 100 µM,> 100 µM,44.2 µM,> 100 µM,> 100 µM,> 100 µM,> 100 µM,> 100 µM,> 100 µM,> 100 µM,> 100 µM,5.77 µM,> 100 µM,> 100 µM,> 100 µM,74.2 µM
Cn1c(N)c(/C=N/NC(=O)CC#N)c(=O)n(C)c1=O,> 100 µM,> 100 µM,> 100 µM,> 100 µM,> 100 µM,> 100 µM,> 100 µM,> 100 µM,> 100 µM,> 100 µM,–,–,–,–,–,–,–,–,–,–
O=C1c2cc(Cl)ccc2-n2c(noc2=O)C2CSCN12 (centres undefined),> 100 µM,> 100 µM,> 100 µM,> 100 µM,> 100 µM,> 100 µM,> 100 µM,> 100 µM,> 100 µM,> 100 µM,–,–,–,–,–,–,–,–,–,–
CN(C)c1ccc(-c2nc(-c3cc4c(ccc5ccccc54)oc3=O)cs2)cc1,> 100 µM,> 100 µM,> 100 µM,> 100 µM,> 100 µM,> 100 µM,> 100 µM,> 100 µM,> 100 µM,> 100 µM,–,–,–,–,–,–,–,–,–,–
O=C(c1ccccc1F)c1c(NCc2ccccc2)c(=O)c1=O,> 100 µM,> 100 µM,> 100 µM,> 100 µM,> 100 µM,> 100 µM,> 100 µM,> 100 µM,> 100 µM,> 100 µM,–,–,–,–,–,–,–,–,–,–
COc1ccc(C2CC(c3c(C)nn(-c4ccccc4)c3-c3ccc(C)cc3O)=NN2c2ccccc2)cc1 (centres undefined),> 100 µM,> 100 µM,> 100 µM,> 100 µM,> 100 µM,> 100 µM,> 100 µM,> 100 µM,> 52.3 µM,> 100 µM,–,–,–,–,–,–,–,–,–,–
CCCCCCCCCCCCCCCCP(=O)(O)OP(=O)(O)OCC1OC(n2ccc(N)nc2=O)C(O)C1O (centres undefined),> 100 µM,> 100 µM,> 100 µM and 50.3 µM,> 100 µM and 22.7 µM,> 100 µM and 78.9 µM,> 100 µM and 51.3 µM,> 100 µM,> 100 µM and 56.5 µM,> 100 µM,> 100 µM and 28 µM,83.2 µM and 29.2 µM,–,> 100 µM and 14 µM,–,–,> 100 µM and 35.1 µM,43 µM and 20.5 µM,–,–,64.5 µM and 21.6 µM
CC(C)=CC(=O)O[C@@H]1CC(C)(C)CC2C3=CCC4[C@]56CC[C@](O)(OC5)C(C)(C)C6CC[C@@]4(C)C3(C)CC[C@]21C(=O)O (some centres undefined),> 100 µM,> 100 µM,> 100 µM,> 100 µM,> 100 µM,> 100 µM,> 100 µM,> 100 µM,> 100 µM,–,–,–,–,–,–,–,–,–,–,–
c1ccc2c(c1)CC1c3[nH]c4ccccc4c3CCN21 (centres undefined),> 10 µM,> 10 µM,> 10 µM,> 10 µM,> 10 µM,> 10 µM,> 10 µM,> 10 µM,> 10 µM,> 10 µM,–,–,–,–,–,–,–,–,–,–
C=C(CCOC)CCC1CCCCC(=C)C1=O (centres undefined),> 100 µM,> 100 µM,> 100 µM,> 100 µM,> 100 µM,> 100 µM,> 100 µM,> 100 µM,> 100 µM,> 100 µM,–,–,–,–,–,–,–,–,–,–

# — PubChem BioAssay (NCI)
